Test results as given in US5593984A, “Cephalosporin derivatives” (Yuhan Corporation, priority 1992, dated 1997).
In brackets after ≈: the same amount, converted by molar mass.

How the values were obtained:
Assay type in all cases: cell-based
Staph. aureus ATCC 6538P = test: MIC by agar dilution, Staph. aureus ATCC 6538P; conditions: Staphylococcus aureus, ATCC6538P, 17 h; Staph. aureus ATCC 6538P; agar dilution, Mueller-Hinton agar; read-out: Minimal Inhibitory Concentration (MIC)
Method in brief: (§1)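 Following inoculation at 10^6 CFU per ml onto agar containing two-fold compound dilutions, plates were incubated 17±1 hours at 35°-37° C.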

Prov. stuartii IFO 12930 = test: MIC by agar dilution, Prov. stuartii IFO 12930; conditions: Providencia stuartii, IFO12930, 17 h, Mueller-Hinton agar, read-out: Minimal Inhibitory Concentration (MIC)
Method in brief: as §1

P. vulgaris NCTC 8313 = test: MIC by agar dilution, P. vulgaris NCTC 8313; conditions: Proteus vulgaris, NCTC8313, 17 h; P. vulgaris NCTC 8313; agar dilution, Mueller-Hinton agar; read-out: Minimal Inhibitory Concentration (MIC)
Method in brief: as §1

[1] = tested on: S. epidermidis ATCC 12228; test: MIC by agar dilution, S. epidermidis ATCC 12228; conditions: Staphylococcus epidermidis, ATCC12228, 17 h; S. epidermidis ATCC 12228; agar dilution, Mueller-Hinton agar; read-out: Minimal Inhibitory Concentration (MIC)
Method in brief: as §1

E. coli NIHJ JC-2 = test: MIC by agar dilution, E. coli NIHJ JC-2; conditions: Escherichia coli, NIHJJC2, 17 h; E. coli NIHJ JC-2; agar dilution, Mueller-Hinton agar; read-out: Minimal Inhibitory Concentration (MIC)
Method in brief: as §1

E. coli DY-1 = test: MIC by agar dilution, E. coli DY-1; conditions: Escherichia coli, DY1, 17 h; E. coli DY-1; agar dilution, Mueller-Hinton agar; read-out: Minimal Inhibitory Concentration (MIC)
Method in brief: as §1

K. pneumoniae NCTC 9632 = test: MIC by agar dilution, K. pneumoniae NCTC 9632; conditions: Klebsiella pneumoniae, NCTC9632, 17 h; K. pneumoniae NCTC 9632; agar dilution, Mueller-Hinton agar; read-out: Minimal Inhibitory Concentration (MIC)
Method in brief: as §1

[2] = tested on: Ser. marcescens IFO 12648; test: MIC by agar dilution, Ser. marcescens IFO 12648; conditions: Serratia marcescens, IFO12648, 17 h; Ser. marcescens IFO 12648; agar dilution, Mueller-Hinton agar; read-out: Minimal Inhibitory Concentration (MIC)
Method in brief: as §1

Ent. cloacae IFO 13535 = test: MIC by agar dilution, Ent. cloacae IFO 13535; conditions: Enterobacter cloacae, IFO13535, 17 h; Ent. cloacae IFO 13535; agar dilution, Mueller-Hinton agar; read-out: Minimal Inhibitory Concentration (MIC)
Method in brief: as §1

Ps. aeruginosa DY-2 = test: MIC by agar dilution, Ps. aeruginosa DY-2; conditions: Pseudomonas aeruginosa, DY2, 17 h; Ps. aeruginosa DY-2; agar dilution, Mueller-Hinton agar; read-out: Minimal Inhibitory Concentration (MIC)
Method in brief: as §1

[3] = tested on: Ps. aeruginosa NCTC 10490; test: MIC by agar dilution, Ps. aeruginosa NCTC 10490; conditions: Pseudomonas aeruginosa, NCTC10490, 17 h, Mueller-Hinton agar, read-out: Minimal Inhibitory Concentration (MIC)
Method in brief: as §1

M. morganii DY-1 = test: MIC by agar dilution, M. morganii DY-1; conditions: Morganella morganii, DY1, 17 h; M. morganii DY-1; agar dilution, Mueller-Hinton agar; read-out: Minimal Inhibitory Concentration (MIC)
Method in brief: as §1

B. subtilis ATCC 6633 = test: MIC by agar dilution, B. subtilis ATCC 6633; conditions: Bacillus subtilis, ATCC6633, 17 h; B. subtilis ATCC 6633; agar dilution, Mueller-Hinton agar; read-out: Minimal Inhibitory Concentration (MIC)
Method in brief: as §1

Staph. aureus C-5113 = test: MIC by agar dilution, Staph. aureus C-5113; conditions: Staphylococcus aureus, C5113, 17 h, Mueller-Hinton agar, read-out: Minimal Inhibitory Concentration (MIC)
Method in brief: as §1

Staph. aureus C-57 = test: MIC by agar dilution, Staph. aureus C-57; conditions: Staphylococcus aureus, C57, 17 h, Mueller-Hinton agar, read-out: Minimal Inhibitory Concentration (MIC)
Method in brief: as §1

Staph. aureus Smith = test: MIC by agar dilution, Staph. aureus Smith; conditions: Staphylococcus aureus, 17 h, Mueller-Hinton agar, read-out: Minimal Inhibitory Concentration (MIC)
Method in brief: as §1

[4] = tested on: Ps. aeruginosa ATCC 10145; test: MIC by agar dilution, Ps. aeruginosa ATCC 10145; conditions: Pseudomonas aeruginosa, ATCC10145, 17 h, Mueller-Hinton agar, read-out: Minimal Inhibitory Concentration (MIC)
Method in brief: as §1

E. coli No. 29 = test: MIC by agar dilution, E. coli No. 29; conditions: Escherichia coli, 17 h; E. coli No. 29; agar dilution, Mueller-Hinton agar; read-out: Minimal Inhibitory Concentration (MIC)
Method in brief: as §1

Ent. aerogenes IFO 12979 = test: MIC by agar dilution, Ent. aerogenes IFO 12979; conditions: Klebsiella aerogenes, IFO12979, 17 h, Mueller-Hinton agar, read-out: Minimal Inhibitory Concentration (MIC)
Method in brief: as §1

Staph. aureus C-5216 = test: MIC by agar dilution, Staph. aureus C-5216; conditions: Staphylococcus aureus, C5216, 17 h, Mueller-Hinton agar, read-out: Minimal Inhibitory Concentration (MIC)
Method in brief: as §1

Row | SMILES | MIC (Staph. aureus ATCC 6538P) [µg/mL] | MIC (Prov. stuartii IFO 12930) [µg/mL] | MIC (P. vulgaris NCTC 8313) [µg/mL] | MIC [1] [µg/mL] | MIC (E. coli NIHJ JC-2) [µg/mL] | MIC (E. coli DY-1) [µg/mL] | MIC (K. pneumoniae NCTC 9632) [µg/mL] | MIC [2] [µg/mL] | MIC (Ent. cloacae IFO 13535) [µg/mL] | MIC (Ps. aeruginosa DY-2) [µg/mL] | MIC [3] [µg/mL] | MIC (M. morganii DY-1) [µg/mL] | MIC (B. subtilis ATCC 6633) [µg/mL] | MIC (Staph. aureus C-5113) [µg/mL] | MIC (Staph. aureus C-57) [µg/mL] | MIC (Staph. aureus Smith) [µg/mL] | MIC [4] [µg/mL] | MIC (E. coli No. 29) [µg/mL] | MIC (Ent. aerogenes IFO 12979) [µg/mL] | MIC (Staph. aureus C-5216) [µg/mL]
1 | CO/N=C(\C(=O)N[C@@H]1C(=O)N2C(C(=O)[O-])=C(C[n+]3ccn4c(Br)ccc4c3C)CS[C@H]12)c1nsc(N)n1 [Ex. 59, 7-β-[(Z)-2-(5-amino-1,2,4-thiadiazol-3-yl)-2-methoxyiminoacetamido]-3-(6-bromo-1-methylpyrrolo[1,2-a]pyrazinium-2-yl)methyl-3-cephem-4-carboxylate] | 0.1 (≈ 0.165 µM) | ≤ 0.006 | 0.012 (≈ 0.0198 µM) | 0.05 (≈ 0.0823 µM) | 0.025 (≈ 0.0412 µM) | ≤ 0.006 | 0.025 (≈ 0.0412 µM) | 0.025 (≈ 0.0412 µM) | 0.2 (≈ 0.329 µM) | 12.5 (≈ 20.6 µM) | 1.56 (≈ 2.57 µM) | 0.025 (≈ 0.0412 µM) | 0.1 (≈ 0.165 µM) | 0.78 (≈ 1.28 µM) | 6.25 (≈ 10.3 µM) | 0.39 (≈ 0.642 µM) | 1.56 (≈ 2.57 µM) | 0.012 (≈ 0.0198 µM) | ≤ 0.006 | 0.78 (≈ 1.28 µM)
2 | Nc1nc(C(=NOCF)C(=O)NC2C(=O)N3C(C(=O)[O-])=C(C[n+]4ccn5cccc5c4)CSC23)cs1 (stereo not drawn) [Ex. 6, 7-β-[(Z)-2-(2-aminothiazol-4-yl)-2-fluoromethoxyiminoacetamido]-3-(pyrrolo[1,2-a]pyrazinium-2-yl)methyl-3-cephem-4-carboxylate] | 0.2 (≈ 0.376 µM) | ≤ 0.006 | ≤ 0.006 | 0.1 (≈ 0.188 µM) | 0.012 (≈ 0.0226 µM) | ≤ 0.006 | 0.012 (≈ 0.0226 µM) | 0.012 (≈ 0.0226 µM) | 0.05 (≈ 0.0941 µM) | 3.13 (≈ 5.89 µM) | 0.2 (≈ 0.376 µM) | ≤ 0.006 | 0.2 (≈ 0.376 µM) | 1.56 (≈ 2.93 µM) | 25 (≈ 47 µM) | 0.39 (≈ 0.734 µM) | 0.39 (≈ 0.734 µM) | ≤ 0.006 | 0.012 (≈ 0.0226 µM) | 0.78 (≈ 1.47 µM)
3 | CO/N=C(\C(=O)N[C@@H]1C(=O)N2C(C(=O)[O-])=C(C[n+]3ccn4c(SCCO)ccc4c3)CS[C@H]12)c1nsc(N)n1 [Ex. 53, 7-β-[(Z)-2-(5-amino-1,2,4-thiadiazol-3-yl)-2-methoxyiminoacetamido]-3-[6-(2-hydroxyethylthio)pyrrolo[1,2-a]-pyrazinium-2-yl]methyl-3-cephem-4-carboxylate] | 0.78 (≈ 1.32 µM) | 0.025 (≈ 0.0423 µM) | 0.1 (≈ 0.169 µM) | 3.39 (≈ 5.74 µM) | 0.025 (≈ 0.0423 µM) | 0.025 (≈ 0.0423 µM) | 0.025 (≈ 0.0423 µM) | 0.05 (≈ 0.0846 µM) | 0.1 (≈ 0.169 µM) | 6.25 (≈ 10.6 µM) | 0.78 (≈ 1.32 µM) | 0.05 (≈ 0.0846 µM) | 0.2 (≈ 0.339 µM) | 3.13 (≈ 5.3 µM) | 25 (≈ 42.3 µM) | 3.13 (≈ 5.3 µM) | 0.78 (≈ 1.32 µM) | 0.05 (≈ 0.0846 µM) | 0.025 (≈ 0.0423 µM) | 3.13 (≈ 5.3 µM)
4 | CO/N=C(\C(=O)N[C@@H]1C(=O)N2C(C(=O)[O-])=C(C[n+]3ccn4c(CO)ccc4c3)CS[C@H]12)c1nc(N)sc1Cl [Ex. 49, 7-β-[(Z)-2-(2-amino-5-chlorothiazol-4-yl)-2-methoxyiminoacetamido]-3-(6-hydroxymethylpyrrolo[1,2-a]-pyrazinium-2-yl)methyl-3-cephem-4-carboxylate] | 0.2 (≈ 0.346 µM) | ≤ 0.006 | 0.025 (≈ 0.0433 µM) | 0.012 (≈ 0.0208 µM) | 0.1 (≈ 0.173 µM) | ≤ 0.006 | 0.1 (≈ 0.173 µM) | 0.1 (≈ 0.173 µM) | 0.39 (≈ 0.675 µM) | 3.13 (≈ 5.41 µM) | 0.2 (≈ 0.346 µM) | 0.1 (≈ 0.173 µM) | 0.1 (≈ 0.173 µM) | 0.39 (≈ 0.675 µM) | 1.56 (≈ 2.7 µM) | 0.39 (≈ 0.675 µM) | 1.56 (≈ 2.7 µM) | 0.025 (≈ 0.0433 µM) | 0.05 (≈ 0.0865 µM) | 0.78 (≈ 1.35 µM)
